For 72 compounds, EC50, IC50 and outcome results are on record in PubChem BioAssay AID179 (DTP/NCI, 2004).

Activity calls are given as the source filed them.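 Rule for the calls: active = compounds giving half or more protection of infected cells from virus-caused growth loss, again on retest; inactive = the rest.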

This experiment concerns CEM cells HIV-1 protection, formazan growth assay. The experiment is described as follows: NCI AIDS Antiviral Assay. The conditions noted are these: for IC50: measured here: growth of uninfected CEM cells. Summed up:
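CEM (human) cells, HIV-1 infected vs uninfected, 5-point dosing, formazan growth read-out. Retest threshold 50% protection.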

On to `Cc1ccc(S(=O)(=O)N2C[C@](O)(c3ccccc3)[C@H]2C)cc1`, for which the EC50 was more than 200 µM and the IC50 was found to be 195 µM.

Consider `CCCCCCCCCCCCCCCCOC1OC(COC(C)=O)C(OC(C)=O)C(OC(C)=O)C1O` (stereo unspecified), for which the EC50 was more than 13.5 µM and the IC50 is more than 13.5 µM.

`O=C1C(Cl)N(c2ccc(Cl)cc2Cl)C1c1c[nH]c2ccccc12` (stereo unspecified): the EC50 was more than 70.8 µM and the half-inhibitory concentration (IC50) is more than 70.8 µM.

As to `CC1(C)OCC(C2OC(=O)C(OCc3ccccc3)=C2OCc2ccccc2)O1` (stereo unspecified), the EC50 was more than 200 µM and the IC50 is more than 200 µM.

For `CCCC(=O)Nc1ccc2c(ccn2COC)c1`, the EC50 was more than 200 µM and the IC50 is more than 200 µM.

In the case of `Clc1ccc(Cl)c2[s+]snc12`, the EC50 was more than 14.5 µM and the IC50 was more than 14.5 µM.

As to `ClC1(Cl)C2(Cl)C3(Cl)C4C2(Cl)C2(Cl)C4(Cl)C3(Cl)C12Cl` (stereo unspecified), the EC50 was more than 200 µM and the half-inhibitory concentration (IC50) is 33.1 µM.

Turning to `COc1cc2cc(C(=O)N3CC(CCl)c4ccc(N(C)C)cc43)[nH]c2c(OC)c1OC` (stereo unspecified), the EC50 is more than 2 µM and the IC50 turned out to be 0.138 µM.

In the case of `Cc1c(N)c2ccccc2c(=O)n1C`, the EC50 is more than 1120 µM and the IC50 stood at 302 µM.

On to `CC1=Nn2c(nnc2-c2ccccc2Cl)NC(C)(C)C1`, for which the EC50 was more than 447 µM and the IC50 was 282 µM.

Consider `CCCCCCCCCCCC1=C(O)C(N[C@@H]2CCCCC2N)=CC(=O)C1=O` (stereo partly specified), for which the EC50 was more than 3.72 µM and the IC50 was more than 3.72 µM.

Regarding `NC(=O)NN/C=C(/C=Nc1ccccc1)[N+](=O)[O-]`, the EC50 was more than 105 µM and the IC50 was more than 105 µM.

For `O=C1CCn2c([nH]c3cccc4cccc2c43)=N1`, the EC50 is more than 151 µM and the half-inhibitory concentration (IC50) amounted to 148 µM.

As for `COc1ccc2c(c1)OCC1Cc3cc4c(cc3OC21)OCO4` (stereo unspecified), the outcome was inactive.

On to `COc1cc(C)cc2c1C(=O)C(Br)(Br)CC2`, for which the EC50 was more than 2 µM and the half-inhibitory concentration (IC50) was found to be 0.955 µM.

For the compound `CCOC(=O)c1cccn1S(=O)(=O)c1cc(Cl)ccc1NC(=O)CC`, the EC50 was 6.17 µM and the concentration for half-maximal inhibition (IC50) was 195 µM.

As for `Cc1csc(CP(=O)(OC(C)C)OC(C)C)n1`, the EC50 is more than 200 µM and the IC50 was more than 200 µM.

Take `O=C1C(=O)N(C2C3CC4CC(C3)CC2C4)C(=O)C(=O)C1c1nc2ccccc2o1` (stereo unspecified): the EC50 is more than 91.2 µM and the half-maximal inhibitory concentration (IC50) worked out at 52.5 µM.

As for `Cc1n[nH]c(=O)n1N1C(=O)CCCC1=O`, the EC50 was more than 200 µM and the half-inhibitory concentration (IC50) was more than 200 µM.

Regarding `O=C(O)c1ccccc1/C=N\N(CCO)C1=NCCN1`, the EC50 is more than 200 µM and the IC50 was more than 200 µM.

Regarding `CCN(CC)CCCNc1nnc2c(=O)n(C)c(=O)n(C)c2n1`, the EC50 is more than 200 µM and the IC50 is more than 200 µM.

As for `CC(=O)Nc1ccc2nncnc2c1`, the EC50 is more than 200 µM and the IC50 was more than 200 µM.

In the case of `N#Cc1c(N2CCOCC2)ncn(-c2ccccc2)c1=O`, the EC50 was more than 200 µM and the IC50 was more than 200 µM.

Turning to `O=C(Cn1c2ccc(Br)cc2c2nc3ccccc3nc21)NCc1ccccc1`, the EC50 is more than 100 µM and the IC50 is more than 100 µM.

In the case of `CC(C)N(C(=O)C12C3C4C1C1C2C3C41C(=O)O)C(C)C` (stereo unspecified), the EC50 was more than 129 µM and the IC50 was more than 129 µM.

For `O=C1Nc2cc([N+](=O)[O-])ccc2NC1/C(=N\Nc1ccccc1)C(O)c1cccc([N+](=O)[O-])c1` (stereo unspecified), the EC50 was more than 417 µM and the IC50 was 47.9 µM.

On to `C=C1[C@@H](OC(C)=O)[C@H]2[C@@H](OC(C)=O)[C@@](C)(OC(C)=O)C[C@]2(OC(C)=O)C(=O)[C@@H](C)/C=C/C(C)(C)C(=O)C[C@H]1OC(C)=O`, for which the EC50 is more than 200 µM and the concentration for half-maximal inhibition (IC50) turned out to be 72.4 µM.

For `C/C(=N\Oc1cc(Cl)ncn1)c1ccccn1`, the EC50 was more than 200 µM and the IC50 came out at 30.2 µM.

Consider `N#Cc1nc(C#N)n(S(=O)(=O)c2ccccc2)c1NS(=O)(=O)c1ccccc1`, for which the EC50 was more than 200 µM and the half-inhibitory concentration (IC50) was more than 200 µM.

Consider `COc1ccc(N(C)Sc2ccccc2)cc1`, for which the EC50 was more than 200 µM and the concentration for half-maximal inhibition (IC50) was 38 µM.

Consider `NNC(=O)C1CCC(=O)N1S(=O)(=O)c1ccccc1` (stereo unspecified), for which the outcome was inactive.

In the case of `Cc1ccc(S(=O)(=O)N2CCN(S(=O)(=O)c3ccc(C)cc3)Cc3ccccc3C2)cc1`, the EC50 was more than 200 µM and the IC50 is more than 200 µM.

`O=C1N=C2N=C(c3ccc(Cl)cc3)N(c3ccc(Cl)cc3)N2Sc2ccccc21`: the EC50 was more than 11.2 µM and the IC50 was more than 11.2 µM.

As for `Cc1ccc(/C(O)=C/c2nc3ccccc3s/c2=N/CS(=O)(=O)c2ccc(C)cc2)cc1`, the EC50 is more than 200 µM and the IC50 was more than 200 µM.

As for `CCOC(=O)NNC(=O)NCc1ccccc1CNC(=O)NNC(=O)OCC`, the EC50 was more than 200 µM and the IC50 was more than 200 µM.

As to `CCCCSC(=CC(=O)c1cccc(C(=O)C=C(SCCCC)SCCCC)n1)SCCCC`, the EC50 is more than 3.72 µM and the IC50 is more than 3.72 µM.

Take `C[CH2][Ge]([CH2]C)([CH2]C)[O]C(=O)C([O][Ge]([CH2]C)([CH2]C)[CH2]C)c1ccccc1` (stereo unspecified): the EC50 is more than 200 µM and the IC50 came out at 20.9 µM.

As to `CC1=NNC(=O)C1C1CC(c2c[nH]c3ccccc23)=NNC1=O` (stereo unspecified), the EC50 was more than 200 µM and the IC50 is 155 µM.

With `C=C1CC(c2ccc(OCCCN3C(=O)c4ccccc4C3=O)cc2)OC1=O` (stereo unspecified), the EC50 is more than 20 µM and the IC50 was 1.7 µM.

In the case of `COc1ccc2c(c1OC)C(=O)O[C@@H]2[C@H]1c2c(cc3c(c2OC)OCO3)CCN1C`, the EC50 is more than 200 µM and the half-inhibitory concentration (IC50) amounted to 24.5 µM.

As to `COc1ccc(/C=N/N=C(\N)NO)c(O)c1`, the EC50 is more than 200 µM and the IC50 stood at 10.5 µM.

For `C[N+]1(C)C[C@@H](O)C[C@@H]1C(=O)[O-]`, the EC50 was more than 1580 µM and the IC50 was more than 1580 µM.

`Cc1ccc2ccc(-c3ccccc3)c3c2c1C(=O)c1ccccc1C3=O`: the result was inactive.

`CC1(C)OC(=O)C(C)(C)OC1=O`: the EC50 was more than 200 µM and the IC50 is more than 200 µM.

`O=C(c1ccc(Cl)cc1Cl)C1[C@H]2C(=O)N(c3ccc(Cc4ccc(N5C(=O)[C@@H]6ON(c7ccccc7)C(C(=O)c7ccc(Cl)cc7Cl)[C@@H]6C5=O)cc4)cc3)C(=O)[C@H]2ON1c1ccccc1` (stereo partly specified): the EC50 was more than 38 µM and the IC50 is more than 38 µM.

Consider `O=C1NC2ON=C(c3ccccc3)C2C2ON=C(c3ccccc3)N12` (stereo unspecified), for which the EC50 was more than 200 µM and the half-inhibitory concentration (IC50) was 37.2 µM.

Consider `Cc1cc(C)nc(/C(=N\NC(N)=O)C(=O)Nc2nc3ccc(C)cc3s2)c1`, for which the EC50 is more than 661 µM and the IC50 was more than 661 µM.

For the compound `COC(=O)c1cc(/C=C2\Cc3cc4c(cc3C2=O)CCC4)cc2c1CCC2`, the EC50 was more than 200 µM and the IC50 is more than 200 µM.

For the compound `c1ccc(C2NC(c3ccccc3)N3C(c4ccccc4)N23)cc1` (stereo unspecified), the EC50 was more than 16.6 µM and the IC50 was more than 16.6 µM.

Turning to `CCOC(=O)c1c(Br)c(-c2ccc(Br)cc2)c(Br)n1C`, the EC50 was more than 100 µM and the half-maximal inhibitory concentration (IC50) stood at 43.7 µM.

For `Cc1ccc(N/N=c2\c3nc4ccccc4nc2n(-c2ccccc2C)c(=S)n3-c2ccc(C)cc2)cc1`, the outcome was inactive.

For the compound `CC(=O)Nc1cc(=O)[nH]c2c1CCC2`, the outcome was inactive.

Consider `CCOC(=O)c1c(NC(=S)NCc2ccccc2)sc2c1CCN(C)C2`, for which the EC50 is more than 151 µM and the IC50 was determined as 95.5 µM.

In the case of `O=C(O)C(=Cc1ccc(Br)cc1)C(=O)O`, the EC50 was more than 912 µM and the half-inhibitory concentration (IC50) is more than 912 µM.

Turning to `CC12CCC(=O)N1c1ccc([N+](=O)[O-])cc1N2` (stereo unspecified), the result was inactive.

With `CC1(CO)COS(=O)OC1` (stereo unspecified), the EC50 is more than 214 µM and the IC50 was more than 214 µM.

Consider `O=C1C(c2ccccc2)=C(c2ccccc2)C(c2ccc(Cc3ccc(C4=C(c5ccccc5)C(=O)C(c5ccccc5)=C4c4ccccc4)cc3)cc2)=C1c1ccccc1`, for which the EC50 is more than 1.35 µM and the IC50 was more than 1.35 µM.

For `CCc1ccc(/C(C#N)=C/c2ccccc2Cl)cc1`, the EC50 is more than 200 µM and the IC50 turned out to be 27.5 µM.

In the case of `CC(=O)OCc1ccc(-c2nc(C#N)c(N)o2)o1`, the EC50 was more than 200 µM and the 50% inhibitory concentration (IC50) is more than 200 µM.

Consider `CC(C)CN1CC(=O)N2CCCC(C)N2C(=O)C1` (stereo unspecified), for which the EC50 was more than 200 µM and the concentration for half-maximal inhibition (IC50) is more than 200 µM.

On to `COC(=O)C1=C(C(=O)OC)C2C3CC4C(C13)C42`, for which the EC50 was more than 200 µM and the IC50 is more than 200 µM.

Take `CN(C)CCNC(=O)c1cccc(C(=O)Nc2ccccc2)c1[N+](=O)[O-]`: the EC50 was more than 200 µM and the half-inhibitory concentration (IC50) was more than 200 µM.

As for `CCN(CC)Cc1c2c(O)c3c(O)c(C)c4c(c3c1O)C(=O)C(C)(O/C=C/C(OC)C(C)C(OC(C)=O)C(C)C(O)C(C)C(O)C(C)/C=C/C=C(\C)C(=O)N2)O4` (stereo unspecified), the EC50 was more than 200 µM and the IC50 came to 33.1 µM.

Take `O=C(N/N=C/c1ccco1)c1cccnc1`: the EC50 was more than 200 µM and the IC50 is more than 200 µM.

Consider `COC(=O)C1=C(C)N(NC(=O)Nc2ccccc2)C2(N)N(NC(=O)Nc3ccccc3)C(C)=C(C(=O)OC)C12C(=O)OC` (stereo unspecified), for which the EC50 was more than 31.6 µM and the IC50 was more than 31.6 µM.

With `Cc1ccc(NC(=O)COC(=O)c2cccc3c(=O)c4ccccc4[nH]c23)cc1`, the outcome was inactive.

Turning to `COc1cc2ccc(CC(N)=O)cc2cc1OC`, the outcome was inactive.

On to `CCOC(=O)C(NCc1cccc(C(F)(F)F)c1)(NC(=O)CC)C(F)(F)F` (stereo unspecified), for which the EC50 was more than 200 µM and the half-inhibitory concentration (IC50) is more than 100 µM.

Regarding `CCCCCCCCCC=C(c1cc(Br)cc(C(=O)O)c1OC)c1cc(Br)cc(C(=O)O)c1OC`, the EC50 is more than 1200 µM and the IC50 came out at 75.9 µM.

As for `CC(C)(c1ccsc1)c1sccc1C(=O)O`, the EC50 is more than 200 µM and the 50% inhibitory concentration (IC50) is more than 200 µM.

For `CCC[CH2][Sn]1([CH2]CCC)[O]CC(c2ccccn2)C[O]1`, the EC50 was more than 49 µM and the half-maximal inhibitory concentration (IC50) turned out to be 10.7 µM.

With `CC[C@]1(Cc2ccc(OC)c(OC)c2)C=[N+]([O-])O[C@H](OC2CCCCC2c2ccccc2)[C@@H]1OC(C)=O` (stereo partly specified), the EC50 was more than 200 µM and the IC50 is 30.2 µM.
